“Also recorded” adds a separate entry of the source.
How the values were obtained:
[1] = test system: nerve, adipose and muscle tissue at nerve sites; assay: In vivo co-staining with Oxazine 4, ratiometric imaging and ROC curve analysis; design: species or system male CD-1 mice; details: for ROC AUC of nerve-to-muscle contrast, change: 30 min after staining compared to immediately following staining
Text: In vivo images were acquired using a previously published, custom-built small animal fluorescence imaging system, described briefly here.^27 Fluorescent images were obtained using a Qimaging EXi Blue monochrome camera (Surrey, British Columbia, CA) with a removable Bayer mask for collection of co-registered color and fluorescence images. A Photofluor II broad band light source (89 North) was expanded onto the surgical field through a liquid light guide and used unfiltered for white light illumination. Nile Red and NR5 were excitated using a 545 t 12.5 nm bandpass filter, while fluorescence emission images were collected with a 605±35 nm bandpass filter. Oxazine 4 (Exciton, West Chester, Ohio) was used for nerve and adipose co-staining and ratiometic imaging studies. Oxazine 4 was excited using a 620±30 nm bandpass filter, while fluorescence emission images were collected through a 700±37.5 nm bandpass filter. Approval for the use of animals in the study was obtained from the Institutional Animal Care and Use Committee (IACUC) at Oregon Health and Science University (OHSU). In vivo staining studies were carried out on male CD-1 mice using an optimized direct/topical administration protocol.^2 Staining was performed concurrently on no more than two nerve sites (sciatic nerve or brachial plexus) per mouse. Nile Red and all Nile Red derivatives were formulated in a previously published co-solvent formulation (10% DMSO, 5% Kolliphor, 63.75% serum and 21.25% PBS^14) at a final concentration of 100 μM. Each formulated fluorophore was incubated for 5 minutes on the nerve site (n=4 nerve sites/fluorophore), followed by 9 short flushes with PBS. The nerve site was then incubated with blank co-solvent not containing fluorophore for 5 minutes, followed again by 9 short flushes with PBS. In vivo co-staining was completed with (1) Nile Red and Oxazine 4 as well as (2) NR5 and Oxazine 4. For these studies, co-solvent formulated Oxazine 4 ([…]) was incubated on the nerve site for 5 minutes followed by 9 short flushes with PBS. The co-solvent formulated Nile Red or NR5 (100 μM) was then incubated on the nerve site for 5 minutes and also followed by 9 short flushes with PBS. Co-registered (1) Nile Red and Oxazine 4 or (2) NR5 and Oxazine 4 images were collected from n=4 nerve sites per groups (1) and (2). Ratiometric images were calculated and quantified using region of interest analysis on the white light images to identify the nerve, adipose and muscle tissue types. Due to the known cross talk of Oxazine 4 into the Nile Red channel,^2 the Oxazine 4 image was subtracted from the Nile Red or NR5 image resulting in an image of only adipose. The ratiometric images were then calculated as the Oxazine 4 image minus the corrected Nile Red or NR5 image divided by the corrected Nile Red or NR5 image. Receiver Operator Characteristic (ROC) curve analysis was performed to assess differences between the ratiometric images, where the area under the curve (AUC) was used as the metric to differentiate between groups (1) and (2) using custom written MatLab code.^28

[2] = test system: sciatic nerve or brachial plexus nerve sites (adipose, nerve, muscle tissue); assay: In vivo imaging following direct/topical administration on rodent nerve sites; design: species or system male CD-1 mice; details: for nerve accumulation: summary of in vitro, ex vivo and in vivo characterization
Text: In vivo images were acquired using a previously published, custom-built small animal fluorescence imaging system, described briefly here.^27 Fluorescent images were obtained using a Qimaging EXi Blue monochrome camera (Surrey, British Columbia, CA) with a removable Bayer mask for collection of co-registered color and fluorescence images. A Photofluor II broad band light source (89 North) was expanded onto the surgical field through a liquid light guide and used unfiltered for white light illumination. Nile Red and NR5 were excitated using a 545 t 12.5 nm bandpass filter, while fluorescence emission images were collected with a 605±35 nm bandpass filter. Oxazine 4 (Exciton, West Chester, Ohio) was used for nerve and adipose co-staining and ratiometic imaging studies. Oxazine 4 was excited using a 620±30 nm bandpass filter, while fluorescence emission images were collected through a 700±37.5 nm bandpass filter. Approval for the use of animals in the study was obtained from the Institutional Animal Care and Use Committee (IACUC) at Oregon Health and Science University (OHSU). In vivo staining studies were carried out on male CD-1 mice using an optimized direct/topical administration protocol.^2 Staining was performed concurrently on no more than two nerve sites (sciatic nerve or brachial plexus) per mouse. Nile Red and all Nile Red derivatives were formulated in a previously published co-solvent formulation (10% DMSO, 5% Kolliphor, 63.75% serum and 21.25% PBS^14) at a final concentration of 100 μM. Each formulated fluorophore was incubated for 5 minutes on the nerve site (n=4 nerve sites/fluorophore), followed by 9 short flushes with PBS. The nerve site was then incubated with blank co-solvent not containing fluorophore for 5 minutes, followed again by 9 short flushes with PBS.

[3] = 100 μM, immediately following direct administration
[4] = 30 minutes post direct administration
[5] = immediately following direct administration

SMILES	ROC AUC of nerve-to-muscle contrast, change [1]	tissue specific fluorescence intensity [2, 3]	tissue specific fluorescence intensity ([2]; 30 minutes after direct administration)	adipose to muscle contrast [2, 4]	adipose to nerve contrast [2, 4]	adipose to muscle ratio [2, 5]	adipose to nerve ratio [2, 5]	nerve accumulation [2]	z-score, nerve-to-muscle contrast ([1]; NR5 and oxazine 4 costaining versus oxazine 4 alone, 30 min after staining)	z-score, nerve-to-muscle contrast ([1]; NR5 costaining with oxazine 4 compared to Nile Red costaining with oxazine 4, 30 min after staining)	z-score, nerve-to-adipose contrast ([1]; NR versus NR5 costaining with oxazine 4, 30 min after staining)	z-score, nerve-to-adipose contrast ([1]; NR versus NR5 costaining with oxazine 4, first time point (immediately after staining implied))	z-score, nerve-to-muscle contrast ([1]; NR versus NR5 costaining with oxazine 4, immediately following staining)	ROC AUC nerve contrast ([1]; costaining with Oxazine 4, 30 minutes post direct administration)	ROC AUC nerve contrast ([1]; costaining with Oxazine 4, immediately following direct administration)	z-score, nerve-to-adipose contrast ([1]; oxazine 4 only staining versus NR5 costaining with oxazine 4, 30 min after staining)	z-score, nerve-to-adipose contrast ([1]; oxazine 4 only staining versus NR5 costaining with oxazine 4, first time point (immediately after staining implied))	z-score, nerve-to-muscle contrast ([1]; oxazine 4 only staining versus NR5 costaining with oxazine 4, immediately following staining)	tissue-specific contrast, adipose signal ([2]; out to 120 minutes after direct administration)
CCN(CC)c1ccc2nc3c4ccccc4c(=O)cc-3oc2c1 [Nile Red]	substantial drop in AUC value	highest fluorescence signal compared to the other Nile Red derivatives; also recorded: strong fluorescence intensity	decrease in adipose, nerve and muscle fluorescence	greatest	decreased	greatest adipose to muscle contrast	increased contrast over control autofluorescence with similar adipose to nerve contrast	some nerve accumulation											
CCN(CC)c1ccc2nc3c4ccc(-c5ccc(C#N)cc5)cc4c(=O)cc-3oc2c1 [NR5, 4-(9-(diethylamino)-5-oxo-5H-benzo[a]phenoxazin-3-yl)benzonitrile]	little change	highest fluorescence signal compared to the other Nile Red derivatives; also recorded: highest fluorescence intensity in the adipose, nerve and muscle tissues of the synthesized Nile Red derivatives			higher adipose-to-nerve contrast compared to Nile Red; also recorded: increased	lower than Nile Red, adipose to muscle contrast was similar	increased contrast over control autofluorescence with similar adipose to nerve contrast	minimal nerve accumulation	-21.32	99.96	98.20	25.26	21.87	improved nerve to adipose and nerve to muscle contrast ratios; also recorded: significantly higher nerve-to-adipose contrast	slightly improved values	16.12	28.63	15.22	adipose signal was maintained throughout the 120 minute imaging time

Reference: patent US20210115000A1, “NILE RED DERIVATIVES FOR IMPROVED RATIOMETRIC IMAGING FOR NERVE SPECIFIC CONTRAST” (Oregon Health & Sciences University, priority 2018, published 2021)
